Source: patent US20250282776A1, “Bicyclic TLR7 Agonists and Uses Thereof” (Bristol-Myers Squibb Company, priority 2024, published 2025)

Assays:
human TLR8 (hTLR8) = molecular target: T1, human TLR8 (hTLR8) (Homo sapiens, UniProt Q9NR97); assay: Human TLR8 agonist activity assay (measured in a similar manner); format: cell-based; details: HEK-Blue TLR cells, SEAP reporter, measured in a similar manner to TLR7; some values average of multiple measurements
T1 construct: expressed in transfected cells
T1 sequence (Q9NR97 27-1041): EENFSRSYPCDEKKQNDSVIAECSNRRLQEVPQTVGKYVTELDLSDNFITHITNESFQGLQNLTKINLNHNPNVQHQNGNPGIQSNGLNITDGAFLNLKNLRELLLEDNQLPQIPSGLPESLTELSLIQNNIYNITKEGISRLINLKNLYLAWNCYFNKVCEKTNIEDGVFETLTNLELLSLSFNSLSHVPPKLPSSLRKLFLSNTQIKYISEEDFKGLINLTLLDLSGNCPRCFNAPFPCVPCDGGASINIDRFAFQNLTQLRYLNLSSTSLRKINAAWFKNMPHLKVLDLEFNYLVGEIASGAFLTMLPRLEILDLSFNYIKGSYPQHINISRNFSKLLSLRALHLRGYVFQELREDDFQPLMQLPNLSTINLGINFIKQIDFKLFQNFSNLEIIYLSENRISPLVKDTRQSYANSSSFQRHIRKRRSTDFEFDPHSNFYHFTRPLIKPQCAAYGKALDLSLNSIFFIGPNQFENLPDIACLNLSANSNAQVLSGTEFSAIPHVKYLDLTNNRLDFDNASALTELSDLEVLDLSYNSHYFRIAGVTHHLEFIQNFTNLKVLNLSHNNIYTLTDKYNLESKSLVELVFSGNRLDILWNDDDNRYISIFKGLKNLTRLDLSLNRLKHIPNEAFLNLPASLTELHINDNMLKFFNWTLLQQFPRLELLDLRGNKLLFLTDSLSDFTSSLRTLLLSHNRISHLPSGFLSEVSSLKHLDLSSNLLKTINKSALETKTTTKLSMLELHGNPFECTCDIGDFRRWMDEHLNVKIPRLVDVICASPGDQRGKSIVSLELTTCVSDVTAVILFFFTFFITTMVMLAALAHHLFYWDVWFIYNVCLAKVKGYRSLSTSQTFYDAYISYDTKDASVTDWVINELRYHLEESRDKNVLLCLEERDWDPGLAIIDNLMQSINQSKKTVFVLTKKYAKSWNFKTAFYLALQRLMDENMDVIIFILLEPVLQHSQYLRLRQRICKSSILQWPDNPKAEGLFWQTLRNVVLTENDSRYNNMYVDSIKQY
Procedure: (§1) This procedure describes a method for assaying human TLR7 (hTLR7) and human TLR8 (hTLR8) agonist activity of the compounds disclosed herein.
HEK-Blue™ TLR7 cells were added to each well of a 384-well tissue-culture plate (15,000 cells per well) and incubated 16-18 h at 37° C., 5% CO2. Compounds (100 nL) were dispensed into wells containing the HEK-Blue™ TLR cells and the treated cells were incubated at 37° C., 5% CO2. After 18 h, ten microliters 5 of freshly prepared Quanti-Blue™ reagent (Invivogen) was added to each well and incubated for 30 min (37° C., […]). SLAP levels were measured using an Envision plate reader (OD=620 nm). […] Some of the reported activities were the average of multiple measurements.
TLR8 activity was measured in a similar manner.

human TLR7 (hTLR7) = molecular target: T2, human TLR7 (hTLR7) (Homo sapiens, UniProt Q9NYK1); assay: Human TLR7 agonist activity assay (HEK-Blue TLR7 SEAP reporter); format: cell-based; details: HEK-Blue TLR7 cells, 18 h incubation, Quanti-Blue, OD 620 nm, some values average of multiple measurements
T2 construct: host or cells: HEK-Blue TLR7 cells (engineered human embryonic kidney cells)
T2 sequence (Q9NYK1 27-1049): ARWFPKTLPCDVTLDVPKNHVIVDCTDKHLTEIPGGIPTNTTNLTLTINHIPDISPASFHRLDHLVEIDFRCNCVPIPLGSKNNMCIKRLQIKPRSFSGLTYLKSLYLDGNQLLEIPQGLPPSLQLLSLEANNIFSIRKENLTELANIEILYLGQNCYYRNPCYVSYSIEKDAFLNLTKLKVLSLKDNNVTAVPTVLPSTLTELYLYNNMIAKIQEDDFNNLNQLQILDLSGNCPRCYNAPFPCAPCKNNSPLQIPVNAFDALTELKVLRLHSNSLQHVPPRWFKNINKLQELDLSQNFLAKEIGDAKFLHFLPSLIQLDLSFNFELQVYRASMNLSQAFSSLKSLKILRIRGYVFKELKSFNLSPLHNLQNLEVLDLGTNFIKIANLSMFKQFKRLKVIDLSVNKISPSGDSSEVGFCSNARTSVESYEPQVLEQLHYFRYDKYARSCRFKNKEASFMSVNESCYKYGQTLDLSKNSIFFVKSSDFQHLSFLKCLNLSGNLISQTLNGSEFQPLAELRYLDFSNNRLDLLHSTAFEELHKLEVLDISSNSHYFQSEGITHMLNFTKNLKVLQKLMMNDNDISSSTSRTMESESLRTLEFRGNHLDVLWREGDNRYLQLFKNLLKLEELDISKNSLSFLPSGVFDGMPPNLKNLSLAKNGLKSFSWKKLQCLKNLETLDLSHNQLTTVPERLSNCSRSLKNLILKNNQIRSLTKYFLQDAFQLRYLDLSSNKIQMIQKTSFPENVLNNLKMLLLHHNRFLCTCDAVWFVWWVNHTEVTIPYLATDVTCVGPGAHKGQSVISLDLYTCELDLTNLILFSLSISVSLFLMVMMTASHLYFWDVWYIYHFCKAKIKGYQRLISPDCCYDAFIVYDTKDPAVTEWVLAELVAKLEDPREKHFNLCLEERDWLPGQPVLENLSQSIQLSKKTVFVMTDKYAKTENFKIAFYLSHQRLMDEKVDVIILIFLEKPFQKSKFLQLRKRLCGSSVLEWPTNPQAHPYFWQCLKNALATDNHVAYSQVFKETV
Procedure: as §1
HEK-Blue™ TLR7 cells were added to each well of a 384-well tissue-culture plate (15,000 cells per well) and incubated 16-18 h at 37° C., 5% CO2. Compounds (100 nL) were dispensed into wells containing the HEK-Blue™ TLR cells and the treated cells were incubated at 37° C., 5% CO2. After 18 h, ten microliters 5 of freshly prepared Quanti-Blue™ reagent (Invivogen) was added to each well and incubated for 30 min (37° C., […]). SLAP levels were measured using an Envision plate reader (OD=620 nm). The half maximal effective concentration values (ECSO; compound concentration which induced a response halfway between the assay baseline and maximum) were calculated. Some of the reported activities were the average of multiple measurements.

Row | SMILES | EC50 (human TLR8 (hTLR8)) [nM] | EC50 (human TLR7 (hTLR7)) [nM]
1 | CCCCN(CCO)c1nc(N)nc2cn(Cc3c(F)cc(C4CCNCC4)cc3OC)nc12 [Compound 16] | 2500 | 749
2 | CCCCN(CCO)c1nc(N)nc2cn(Cc3ccc(CN4C[C@H]5COC[C@H]5C4)cc3OC)nc12 [Compound 11] | 727 | 732
3 | CCCCN(CCO)c1nc(N)nc2cn(Cc3c(OC)cc(CNC4CCOCC4)cc3OC)nc12 [Compound 144] | 2060 | 1870
4 | CCCCN(CCO)c1nc(N)nc2cn(Cc3c(F)cc(CN[C@@H]4CCOC4)cc3F)nc12 [Compound 116] | 1020 | 31
5 | CCCCN(CCO)c1nc(N)nc2cn(Cc3c(F)cc(C4CCN(C5CCOCC5)CC4)cc3C#N)nc12 [Compound 150] | 2100 | 1130
6 | CCCCN(CCO)c1nc(N)nc2cn(Cc3ccc(CN[C@H]4CCN(C(C)C)C4)cc3OC)nc12 [Compound 56] | 2310 | 1700
7 | CCCCN(CCO)c1nc(N)nc2cn(Cc3c(F)cc(C4=CC[C@@H](NC5CC6(COC6)C5)CC4)cc3OC)nc12 [Compound 194] | 1130 | 422
8 | CCCCN(CCOC)c1nc(N)nc2cn(Cc3ccc(CN[C@@H]4CCOC4)cc3OC)nc12 [Compound 71] | 1880 | 621
9 | CCCCN(CCO)c1nc(N)nc2cn(Cc3ccc(CN[C@@H]4CCOC4)n4ncnc34)nc12 [Compound 172] | 1350 | 870
10 | CCCCN(CCO)c1nc(N)nc2cn(Cc3c(F)cc(C4=CCC(NCCOC)CC4)cc3OC)nc12 (stereo not drawn) [Compound 193] | 1080 | 333

Now those with a lower EC50 (human TLR8 (hTLR8)), led by results:

Row | EC50 (human TLR8 (hTLR8)) [nM] | EC50 (human TLR7 (hTLR7)) [nM] | SMILES
11 | 389 | 1160 | CCCCN(CCO)c1nc(N)nc2cn(Cc3ccc(CNC4CCOCC4)cc3)nc12 [Compound 158]
12 | 677 | 396 | CCCCN(CCO)c1nc(N)nc2cn(Cc3ccc(CNC4CCS(=O)(=O)CC4)c4scnc34)nc12 [Compound 213]
13 | 469 | 326 | CCCCN(CCO)c1nc(N)nc2cn(Cc3ccc(CN4CCN(C5CCC5)CC4)c4cccnc34)nc12 [Compound 60]
14 | 360 | 430 | CCCCN(CCO)c1nc(N)nc2cn(Cc3ccc(CNC4CCOC4)cc3OC)nc12 (stereo not drawn) [Compound 25]
15 | 227 | 182 | CCCCN(CCO)c1nc(N)nc2cn(Cc3ccc(CN4CC(CCOC)C4)c4cccnc34)nc12 [Compound 48]
